BindingDB's records for doi:10.1124/jpet.106.103382 (Wyeth Research, 2006)

How the values were obtained:
[1] = target: D(1A) dopamine receptor (Homo sapiens, UniProt P21728)
[2] = target: T1, Adenosine receptor A1 (Homo sapiens, UniProt P30542)
T1 sequence (P30542 whole entry): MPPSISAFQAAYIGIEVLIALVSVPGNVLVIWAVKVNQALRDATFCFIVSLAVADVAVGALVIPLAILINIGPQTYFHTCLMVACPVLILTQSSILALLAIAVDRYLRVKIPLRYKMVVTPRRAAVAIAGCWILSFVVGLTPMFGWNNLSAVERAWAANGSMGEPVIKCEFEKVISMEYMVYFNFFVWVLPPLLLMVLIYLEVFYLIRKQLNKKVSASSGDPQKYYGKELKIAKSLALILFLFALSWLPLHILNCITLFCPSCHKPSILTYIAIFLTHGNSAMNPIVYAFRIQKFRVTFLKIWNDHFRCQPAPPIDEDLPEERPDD

[3] = target: Transporter (Cavia porcellus, UniProt H0WCX4)
Transporter, sequence (H0WCX4 whole entry): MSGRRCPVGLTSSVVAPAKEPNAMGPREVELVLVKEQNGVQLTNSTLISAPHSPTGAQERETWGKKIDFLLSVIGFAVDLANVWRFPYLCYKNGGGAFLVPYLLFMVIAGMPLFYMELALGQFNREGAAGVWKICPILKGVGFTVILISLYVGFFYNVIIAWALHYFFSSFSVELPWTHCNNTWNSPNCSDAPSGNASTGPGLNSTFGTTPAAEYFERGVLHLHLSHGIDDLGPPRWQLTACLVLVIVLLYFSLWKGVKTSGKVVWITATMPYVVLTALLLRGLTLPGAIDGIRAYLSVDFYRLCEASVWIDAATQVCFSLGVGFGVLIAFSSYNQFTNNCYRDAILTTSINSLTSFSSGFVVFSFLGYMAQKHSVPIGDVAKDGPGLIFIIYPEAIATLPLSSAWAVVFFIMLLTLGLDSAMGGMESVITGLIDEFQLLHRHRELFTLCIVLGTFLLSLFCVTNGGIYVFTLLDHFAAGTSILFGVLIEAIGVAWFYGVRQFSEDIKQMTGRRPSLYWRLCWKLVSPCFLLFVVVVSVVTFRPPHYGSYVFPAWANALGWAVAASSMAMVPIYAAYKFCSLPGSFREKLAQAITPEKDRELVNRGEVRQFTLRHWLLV

[4] = target: T2, Muscarinic acetylcholine receptor M2 (Homo sapiens, UniProt P08172)
T2 sequence (P08172 whole entry): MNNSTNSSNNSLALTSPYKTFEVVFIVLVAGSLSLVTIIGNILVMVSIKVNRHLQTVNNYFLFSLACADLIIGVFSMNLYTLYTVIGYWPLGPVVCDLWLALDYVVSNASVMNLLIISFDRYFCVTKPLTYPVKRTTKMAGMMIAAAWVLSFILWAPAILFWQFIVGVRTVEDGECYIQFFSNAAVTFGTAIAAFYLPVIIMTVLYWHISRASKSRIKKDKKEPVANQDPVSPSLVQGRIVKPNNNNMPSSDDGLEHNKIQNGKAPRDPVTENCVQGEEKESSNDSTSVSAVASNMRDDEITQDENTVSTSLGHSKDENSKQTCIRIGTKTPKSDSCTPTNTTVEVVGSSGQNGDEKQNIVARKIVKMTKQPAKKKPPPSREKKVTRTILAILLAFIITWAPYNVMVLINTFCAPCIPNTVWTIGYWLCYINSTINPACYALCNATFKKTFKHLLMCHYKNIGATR

[5] = target: T3, Muscarinic acetylcholine receptor M5 (Homo sapiens, UniProt P08912)
T3 sequence (P08912 whole entry): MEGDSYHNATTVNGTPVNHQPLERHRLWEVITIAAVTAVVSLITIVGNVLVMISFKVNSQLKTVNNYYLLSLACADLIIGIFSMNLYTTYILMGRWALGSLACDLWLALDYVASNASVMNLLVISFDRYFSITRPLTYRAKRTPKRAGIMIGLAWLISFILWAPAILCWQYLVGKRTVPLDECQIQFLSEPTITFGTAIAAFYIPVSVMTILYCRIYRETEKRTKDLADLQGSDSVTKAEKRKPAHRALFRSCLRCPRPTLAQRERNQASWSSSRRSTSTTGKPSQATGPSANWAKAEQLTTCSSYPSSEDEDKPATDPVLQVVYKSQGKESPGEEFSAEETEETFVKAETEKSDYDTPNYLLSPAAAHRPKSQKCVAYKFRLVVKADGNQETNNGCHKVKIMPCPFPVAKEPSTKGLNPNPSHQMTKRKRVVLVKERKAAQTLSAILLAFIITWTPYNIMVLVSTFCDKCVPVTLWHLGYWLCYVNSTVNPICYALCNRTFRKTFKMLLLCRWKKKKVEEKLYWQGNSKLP

[6] = target: Histamine H2 receptor (Homo sapiens) (UniProt P25021)
Histamine H2 receptor (Homo sapiens), sequence (P25021 whole entry, looked up): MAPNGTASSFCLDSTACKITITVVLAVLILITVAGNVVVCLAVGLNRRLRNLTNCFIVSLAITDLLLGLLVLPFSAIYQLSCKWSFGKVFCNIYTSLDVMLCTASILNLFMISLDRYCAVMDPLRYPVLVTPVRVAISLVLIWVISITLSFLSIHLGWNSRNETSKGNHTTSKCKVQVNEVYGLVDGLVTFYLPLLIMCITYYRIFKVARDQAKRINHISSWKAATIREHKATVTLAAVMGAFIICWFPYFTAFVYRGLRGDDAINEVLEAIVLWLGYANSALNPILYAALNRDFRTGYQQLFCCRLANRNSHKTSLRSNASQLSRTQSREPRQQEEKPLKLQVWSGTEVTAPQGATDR

[7] = target: Cannabinoid receptor 2 (Homo sapiens, UniProt P34972)
Cannabinoid receptor 2, sequence (P34972 whole entry): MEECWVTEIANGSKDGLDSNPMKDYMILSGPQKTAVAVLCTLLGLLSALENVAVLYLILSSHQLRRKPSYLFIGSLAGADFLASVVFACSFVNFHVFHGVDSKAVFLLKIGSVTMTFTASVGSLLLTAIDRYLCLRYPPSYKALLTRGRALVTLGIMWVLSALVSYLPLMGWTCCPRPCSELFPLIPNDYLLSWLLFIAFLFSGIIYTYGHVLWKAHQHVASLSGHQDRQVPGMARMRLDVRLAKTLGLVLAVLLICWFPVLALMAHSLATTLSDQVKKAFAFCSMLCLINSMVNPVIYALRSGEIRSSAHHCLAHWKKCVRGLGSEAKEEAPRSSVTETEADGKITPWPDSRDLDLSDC

[8] = target: Histamine H1 receptor (Homo sapiens) (UniProt P35367)
Histamine H1 receptor (Homo sapiens), sequence (P35367 whole entry, looked up): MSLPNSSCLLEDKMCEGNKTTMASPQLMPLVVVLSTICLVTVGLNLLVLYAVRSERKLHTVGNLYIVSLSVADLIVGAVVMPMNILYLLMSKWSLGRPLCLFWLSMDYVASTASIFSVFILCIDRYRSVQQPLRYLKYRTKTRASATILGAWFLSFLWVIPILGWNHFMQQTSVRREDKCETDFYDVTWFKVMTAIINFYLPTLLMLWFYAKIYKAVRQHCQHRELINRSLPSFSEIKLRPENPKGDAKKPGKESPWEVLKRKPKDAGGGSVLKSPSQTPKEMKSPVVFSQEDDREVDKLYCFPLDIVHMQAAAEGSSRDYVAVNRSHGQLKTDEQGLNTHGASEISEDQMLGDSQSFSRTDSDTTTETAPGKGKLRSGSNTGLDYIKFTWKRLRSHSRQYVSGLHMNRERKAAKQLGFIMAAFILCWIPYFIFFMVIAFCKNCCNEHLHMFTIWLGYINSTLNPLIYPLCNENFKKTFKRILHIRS

[9] = target: D(2) dopamine receptor (Homo sapiens, UniProt P14416)
D(2) dopamine receptor, sequence (P14416 whole entry): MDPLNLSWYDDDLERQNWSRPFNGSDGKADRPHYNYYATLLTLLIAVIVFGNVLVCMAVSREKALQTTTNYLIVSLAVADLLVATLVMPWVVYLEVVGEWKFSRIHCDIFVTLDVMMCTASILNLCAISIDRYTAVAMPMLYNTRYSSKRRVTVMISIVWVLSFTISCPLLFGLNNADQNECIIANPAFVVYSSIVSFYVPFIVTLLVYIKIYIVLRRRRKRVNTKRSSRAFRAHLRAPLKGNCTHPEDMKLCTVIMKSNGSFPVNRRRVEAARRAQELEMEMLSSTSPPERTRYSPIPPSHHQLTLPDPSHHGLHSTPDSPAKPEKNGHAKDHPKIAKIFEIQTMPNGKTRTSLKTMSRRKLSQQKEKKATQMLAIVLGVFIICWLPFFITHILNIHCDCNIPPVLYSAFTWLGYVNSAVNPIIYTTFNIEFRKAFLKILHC

[10] = target: T4, Muscarinic acetylcholine receptor M1 (Homo sapiens, UniProt P11229)
T4 sequence (P11229 whole entry): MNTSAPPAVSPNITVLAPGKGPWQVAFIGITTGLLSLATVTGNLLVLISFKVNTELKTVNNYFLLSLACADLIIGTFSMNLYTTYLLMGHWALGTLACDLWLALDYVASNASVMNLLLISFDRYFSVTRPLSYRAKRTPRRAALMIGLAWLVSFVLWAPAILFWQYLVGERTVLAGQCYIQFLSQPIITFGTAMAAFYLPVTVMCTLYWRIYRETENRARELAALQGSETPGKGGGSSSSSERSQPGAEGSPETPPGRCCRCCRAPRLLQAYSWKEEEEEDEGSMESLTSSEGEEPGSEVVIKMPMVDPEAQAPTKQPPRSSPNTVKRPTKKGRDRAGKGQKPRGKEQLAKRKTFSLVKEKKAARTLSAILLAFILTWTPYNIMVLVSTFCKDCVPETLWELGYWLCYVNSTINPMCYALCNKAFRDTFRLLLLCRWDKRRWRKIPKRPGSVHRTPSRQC

[11] = target: Histamine H3 receptor (Homo sapiens) (UniProt Q9Y5N1)
Histamine H3 receptor (Homo sapiens), sequence (Q9Y5N1 whole entry, looked up): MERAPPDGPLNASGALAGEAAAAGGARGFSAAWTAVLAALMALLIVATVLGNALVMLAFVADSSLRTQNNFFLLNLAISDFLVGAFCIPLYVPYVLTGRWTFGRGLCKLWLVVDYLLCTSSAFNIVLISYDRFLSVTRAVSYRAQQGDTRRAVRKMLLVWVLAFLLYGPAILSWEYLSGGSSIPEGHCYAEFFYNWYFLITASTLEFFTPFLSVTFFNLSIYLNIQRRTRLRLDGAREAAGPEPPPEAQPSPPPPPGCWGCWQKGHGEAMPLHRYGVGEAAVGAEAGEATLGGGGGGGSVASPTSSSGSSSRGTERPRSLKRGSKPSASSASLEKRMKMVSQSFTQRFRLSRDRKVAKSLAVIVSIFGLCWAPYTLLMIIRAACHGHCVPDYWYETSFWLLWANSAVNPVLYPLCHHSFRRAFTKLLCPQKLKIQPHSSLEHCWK

[12] = target: T5, Adenosine receptor A2b (Bos taurus, UniProt Q1LZD0)
T5 sequence (Q1LZD0 whole entry): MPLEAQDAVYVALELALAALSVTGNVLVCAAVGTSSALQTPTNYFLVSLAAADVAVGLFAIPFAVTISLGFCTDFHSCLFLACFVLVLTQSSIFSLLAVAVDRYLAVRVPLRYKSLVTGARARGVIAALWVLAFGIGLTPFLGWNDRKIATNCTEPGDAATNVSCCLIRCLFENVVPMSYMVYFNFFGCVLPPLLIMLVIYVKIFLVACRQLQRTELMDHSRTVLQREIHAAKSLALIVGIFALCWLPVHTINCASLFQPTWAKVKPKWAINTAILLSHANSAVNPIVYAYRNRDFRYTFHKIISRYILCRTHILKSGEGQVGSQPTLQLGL

[13] = target: Muscarinic acetylcholine receptor M3 (Homo sapiens, UniProt P20309)
Muscarinic acetylcholine receptor M3, sequence (P20309 whole entry): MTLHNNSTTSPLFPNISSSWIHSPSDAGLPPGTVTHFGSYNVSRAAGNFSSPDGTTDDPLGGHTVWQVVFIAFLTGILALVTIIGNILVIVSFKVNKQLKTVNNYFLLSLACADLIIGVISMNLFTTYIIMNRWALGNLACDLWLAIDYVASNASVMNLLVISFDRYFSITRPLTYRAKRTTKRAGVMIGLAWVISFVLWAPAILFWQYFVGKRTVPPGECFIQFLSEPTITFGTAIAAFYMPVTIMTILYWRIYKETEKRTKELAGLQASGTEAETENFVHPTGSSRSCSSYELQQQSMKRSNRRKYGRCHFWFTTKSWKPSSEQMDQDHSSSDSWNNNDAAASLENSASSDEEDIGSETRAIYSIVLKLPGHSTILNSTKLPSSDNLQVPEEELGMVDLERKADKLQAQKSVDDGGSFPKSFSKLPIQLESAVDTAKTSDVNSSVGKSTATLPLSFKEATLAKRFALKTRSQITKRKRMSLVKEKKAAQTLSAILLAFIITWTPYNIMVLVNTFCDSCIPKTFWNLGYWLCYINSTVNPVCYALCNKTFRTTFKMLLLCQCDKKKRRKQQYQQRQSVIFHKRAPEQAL

[14] = target: T6, Muscarinic acetylcholine receptor M4 (Homo sapiens, UniProt P08173)
T6 sequence (P08173 whole entry): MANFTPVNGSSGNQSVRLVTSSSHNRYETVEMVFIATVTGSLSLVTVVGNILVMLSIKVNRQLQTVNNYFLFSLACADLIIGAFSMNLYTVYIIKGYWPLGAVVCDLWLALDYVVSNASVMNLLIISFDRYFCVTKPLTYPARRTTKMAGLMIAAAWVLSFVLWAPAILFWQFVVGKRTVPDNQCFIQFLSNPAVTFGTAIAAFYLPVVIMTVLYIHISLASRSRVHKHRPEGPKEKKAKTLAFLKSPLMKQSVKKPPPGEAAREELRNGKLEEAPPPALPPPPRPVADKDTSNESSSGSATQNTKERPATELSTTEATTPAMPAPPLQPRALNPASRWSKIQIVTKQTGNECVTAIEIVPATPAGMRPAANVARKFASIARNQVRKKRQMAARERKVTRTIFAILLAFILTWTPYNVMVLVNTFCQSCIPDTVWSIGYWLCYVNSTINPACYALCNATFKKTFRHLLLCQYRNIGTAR

[15] = target: D(3) dopamine receptor (Homo sapiens) (UniProt P35462)
D(3) dopamine receptor (Homo sapiens), sequence (P35462 whole entry, looked up): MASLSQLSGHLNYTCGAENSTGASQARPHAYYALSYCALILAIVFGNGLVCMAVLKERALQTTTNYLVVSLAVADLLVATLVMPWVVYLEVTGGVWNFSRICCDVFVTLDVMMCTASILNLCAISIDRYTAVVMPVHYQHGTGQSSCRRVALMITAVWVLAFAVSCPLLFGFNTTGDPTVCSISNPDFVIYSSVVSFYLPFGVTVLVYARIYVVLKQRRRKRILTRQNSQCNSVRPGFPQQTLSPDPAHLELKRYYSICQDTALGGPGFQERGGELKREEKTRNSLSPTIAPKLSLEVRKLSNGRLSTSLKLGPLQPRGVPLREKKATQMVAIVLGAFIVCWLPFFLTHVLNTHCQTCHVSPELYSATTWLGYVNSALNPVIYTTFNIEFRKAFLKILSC

[16] = target: Cannabinoid receptor 1 (Homo sapiens, UniProt P21554)
Cannabinoid receptor 1, sequence (P21554 whole entry): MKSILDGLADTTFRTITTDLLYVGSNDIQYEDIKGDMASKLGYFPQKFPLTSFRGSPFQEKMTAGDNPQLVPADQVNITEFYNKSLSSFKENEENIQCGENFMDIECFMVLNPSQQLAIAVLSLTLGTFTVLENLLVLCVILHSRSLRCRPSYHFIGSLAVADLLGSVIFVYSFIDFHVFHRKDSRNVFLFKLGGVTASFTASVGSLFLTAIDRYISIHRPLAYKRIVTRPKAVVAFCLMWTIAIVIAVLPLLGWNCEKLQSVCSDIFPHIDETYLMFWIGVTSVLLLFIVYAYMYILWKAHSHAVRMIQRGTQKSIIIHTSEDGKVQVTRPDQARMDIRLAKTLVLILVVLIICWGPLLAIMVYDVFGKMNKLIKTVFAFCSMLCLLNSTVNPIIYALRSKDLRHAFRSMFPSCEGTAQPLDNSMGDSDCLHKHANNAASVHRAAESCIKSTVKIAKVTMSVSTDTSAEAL

Measured: IC50

D(1A) dopamine receptor, sequence (P21728 whole entry): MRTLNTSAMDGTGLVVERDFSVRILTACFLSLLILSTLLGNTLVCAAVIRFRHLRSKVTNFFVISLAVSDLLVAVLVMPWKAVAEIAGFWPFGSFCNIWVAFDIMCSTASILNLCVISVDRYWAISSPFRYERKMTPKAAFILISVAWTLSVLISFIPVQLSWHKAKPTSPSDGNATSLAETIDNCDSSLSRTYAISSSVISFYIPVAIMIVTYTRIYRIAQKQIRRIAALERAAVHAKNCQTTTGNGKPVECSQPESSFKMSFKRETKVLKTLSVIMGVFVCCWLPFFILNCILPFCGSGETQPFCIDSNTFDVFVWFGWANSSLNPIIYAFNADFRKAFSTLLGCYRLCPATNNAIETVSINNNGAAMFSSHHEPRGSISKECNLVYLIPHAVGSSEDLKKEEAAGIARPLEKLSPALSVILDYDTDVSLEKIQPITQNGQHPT

CN(C)CC(c1ccc(O)cc1)C1(O)CCCCC1 (stereo unspecified) [CAS_386750-22-7]
> 10 µM: [1] | [2] | [3] | [4] | [5] | [6] | [7] | [8] | [9] | [10] | [11] | [12] | [13] | [14] | [15] | [16]
